According to publication PMC7336998, “Discovery of secondary sulphonamides as IDO1 inhibitors with potent antitumour effects in vivo” (Journal of Enzyme Inhibition and Medicinal Chemistry, 2020):
Like-named read-outs stand apart in the source and are kept apart here. Each block holds one compound with its values, some of them ahead of it.

Assays:
CT26 colon carcinoma [1] = experiment: CT26 colon carcinoma xenograft in immunocompetent BALB/c mice (tumour growth, H&E, IHC, TUNEL, spleen FACS); format: in vivo; conditions: CT26 tumour tissue, BALB/c mice, 25 mg/kg i.p
Method: BALB/c mice (6–8 weeks old, 18–22 g) were supplied by Model Animal Research Centre of Nanjing University (Nanjing, China). Mice were maintained under standard specific-pathogen-free (SPF) conditions (21 ± 2 °C and 12-h light: dark cycle). Animal welfare and experimental procedures were carried out strictly in accordance with the Guide for the Care and Use of Laboratory Animals (The Ministry of Science and Technology of China, 2006) and the related ethical regulations of our university. All efforts were made to minimise animals’ suffering and to reduce the number of animals used. Mouse colon cancer cells (CT26) and melanoma cells (B16F1) were cultured and collected by centrifugation (1000 rpm, 5 min) and washed twice with ice-cold PBS. Then cells were diluted to 1 × 10^7/ml and 1 × 10^6 CT26/B16F1 cells (in 0.1 ml PBS) were injected subcutaneously into the right flanks of mice. All mice formed tumours three days after injection. Then mice were randomly distributed into five groups (n = 10/8) according to tumour volumes. 5d ([…], 12.5 mg/kg) were administered (i.g) to each group respectively every day. 5-FU (25 mg/kg) and Cis-platinum (1 mg/kg) were administered (i.p) every three days. Tumour length and tumour width were measured with a Vernier calliper every three days. Tumour volumes were measured and calculated using the equation volume = a × b^2/2, where “a” is the maximal […] and “b” is maximal orthogonal width. After the administration were completed, mice were weighed, euthanized, and tumours were removed and the weight were taken.
(§1) For immunohistochemistry staining, the sections were deparaffinized, rehydrated, and washed in 1% PBS-Tween 20, and then treated with 2% hydrogen peroxide, blocked with 3% goat serum (Life Technology, 16210–064) and incubated for 2 h at room temperature with specific primary antibodies. Then the slides were incubated with streptavidin-HRP (Shanghai Gene Company, GK500705) for 40 min, then stained with DAB (Shanghai Gene Company, GK500705) substrate and counter-stained with haematoxylin. Images were acquired by microscopy (Olympus IX51).
Given that it was the most prominent inhibitor in vitro, we chose compound 5d for further pharmacodynamic evaluation in vivo. Bowel cancer is the third leading cause of cancer in the world, thus we first evaluated the efficacy of compound 5d on the growth of murine CT26 colon carcinoma xenograft model in immunocompetent BALB/c mice. Fluorouracil (5-FU) is one of the most commonly used drugs to different cancers including bowel cancer, and was used as the positive control. The CT26 tumour-bearing mice were treated with 5d (3.125, 6.25, 12.5 mg/kg, i.g, every day) or 5-FU (25 mg/kg, i.p, […]). Tumour volumes were measured every two days for 14 days.
Figure 7. Compound 5d suppressed colon cancer growth in immunocompetent mice. 1 × 10^6 CT26 cells were transplanted subcutaneously into the armpit of the BALB/c mice. Three days after transplantation, mice were randomly allocated to vehicle control or treatment groups (n = 10). Drugs were administered on days 1–14. Tumour volume (A) and mice body weight (B) were recorded. After sacrifice, solid tumours were separated and weighed (C, D). Data represent mean ± SEM, n = 10, *p < 0.05, **p < 0.01 vs vehicle.
In order to further observe morphological changes in tumour tissues after administration of compound 5d, the tumour tissue sections obtained from the BALB/c mice bearing CT26 colorectal tumours were stained with haematoxylin-eosin (H&E) to highlight different tissue structures, such as the nucleus and cytoplasm.
Then, to understand the mechanism of tumour cell death, we detected the level of proliferating cell nuclear antigen (PCNA) protein and tumour cell apoptosis by immunohistochemistry (IHC) and terminal deoxynucleotidyl transferase dUTP nick end labelling (TUNEL) experiments, respectively. […]

CT26 colon carcinoma [2] = experiment: CT26 colon carcinoma xenograft in immunodeficient BALB/c nude mice; format: in vivo, mouse; conditions: BALB/c nude mice, 25 mg/kg i.p, vs vehicle
Method: Eight-week-old male BALB/c nude mice, weighing 18–22 g, were supplied by Model Animal Research Centre of Nanjing University (Nanjing, China). 1 × 10^7/ml and 1 × 10^6 CT26 cells (in 0.1 ml PBS) were injected subcutaneously into the right flanks of mice. After CT26 xenograft BALB/c nude mouse model was established, all mice were randomly divided into three groups (n = 8). 5d (12.5 mg/kg) were administered (i.g) every day and 5-FU (25 mg/kg) awere administered (i.p) every three days. The following experimental procedures were similar to the described above.
as §1
Then, in order to clarify whether the in vivo antitumour efficacy of compound 5d was related to the mouse immune system, we repeated the above experiment in immunodeficient nude mice. Briefly, BALB/c nude mice bearing established CT26 colon carcinoma xenograft were treated with compound 5d and 5-FU for 10 days.
Figure 8. […] 1 × 10^6 CT26 cells were transplanted subcutaneously into the armpit of immunodeficient BALB/c nude mice. Three days after transplantation, mice were randomly allocated to vehicle control or treatment groups (n = 8). Drugs were administered on days 1–9. (A) Tumour volume and mouse body weight (B) were recorded. After sacrifice, solid tumours were separated and weighed (C, D). Data represent mean ± SEM, n = 8, *p < 0.05, **p < 0.01 vs vehicle.
To verify the above conclusions, we further performed H&E and IHC staining on the nude mouse CT26 tumour tissues. […] These findings further supported the above conclusions.

IDO1 [3] = biological target: T1, IDO1 (Homo sapiens, UniProt P14902); experiment: HeLa cell-based IDO1/kynurenine assay; conditions: for IC50: HeLa cells, IFN-γ induced IDO1, kynurenine readout; for inhibition at 30 µM: percentage inhibition at 30 μM, IFN-γ-treated HeLa cells, kynurenine in media; for potency increase as compared with the hit BS-1: ratio of HeLa IC50 values
T1 construct: a human cervical cancer cell line HeLa that endogenously expresses IDO1 upon IFN-γ treatment; endogenous in cells; host or cells: HeLa cells treated with human IFN-γ
T1 sequence (P14902 whole entry): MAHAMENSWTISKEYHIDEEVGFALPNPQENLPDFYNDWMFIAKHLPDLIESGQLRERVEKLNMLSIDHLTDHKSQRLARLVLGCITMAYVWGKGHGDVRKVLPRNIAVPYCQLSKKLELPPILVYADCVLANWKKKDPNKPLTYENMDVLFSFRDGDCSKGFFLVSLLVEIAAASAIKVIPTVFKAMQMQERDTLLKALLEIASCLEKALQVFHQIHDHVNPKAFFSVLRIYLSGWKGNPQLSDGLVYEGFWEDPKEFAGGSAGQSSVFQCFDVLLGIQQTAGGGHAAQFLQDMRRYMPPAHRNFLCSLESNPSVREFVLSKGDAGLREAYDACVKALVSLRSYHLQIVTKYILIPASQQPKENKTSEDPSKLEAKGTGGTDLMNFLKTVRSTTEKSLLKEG
Method: (§2) The main bioassays performed in the study, including HeLa cell-based IDO1/kynurenine assay, Western blot analysis, T cell proliferation and Treg cell differentiation experiments, were carried out as described previously.
It is well known that IDO1 is broadly expressed in human cancers and is induced by pro-inflammatory cytokines, such as interferon gamma (IFN-γ) and tumour necrosis factor alpha (TNF-α)[41]. Here we utilised a human cervical cancer cell line HeLa that endogenously expresses IDO1 upon IFN-γ treatment to evaluate the IDO1 inhibitory activity of the synthesised compounds by measuring kynurenine secreted into the media. […] Thus, we also employed this cellular assay to detect false positive IDO1 inhibitors and cytotoxic compounds by measuring HeLa cell viability. Clinical candidate navoximod was used as an assay control.

HeLa cells = experiment: HeLa cell viability by MTT at the end of the IDO1/kynurenine assay; format: cell-based, human; conditions: under the experimental conditions of the IDO1 assay
Text: It is well known that IDO1 is broadly expressed in human cancers and is induced by pro-inflammatory cytokines, such as interferon gamma (IFN-γ) and tumour necrosis factor alpha (TNF-α)[41]. Here we utilised a human cervical cancer cell line HeLa that endogenously expresses IDO1 upon IFN-γ treatment to evaluate the IDO1 inhibitory activity of the synthesised compounds by measuring kynurenine secreted into the media. This cell-based assay, as a rapid and simple method for determination IDO1/kynurenine, is closely related to the potency of the enzyme assay and has been widely used to identify various IDO1 inhibitors[19]^,[23]^,[29]^,[42]. In addition, cytotoxic compounds can reduce cell viability, which will decrease the IDO1 levels and then lower the conversion of tryptophan to kynurenine. Thus, we also employed this cellular assay to detect false positive IDO1 inhibitors and cytotoxic compounds by measuring HeLa cell viability. Clinical candidate navoximod was used as an assay control.
Furthermore, the viability of HeLa cells was evaluated by the MTT method at the end of the assay.

IDO1 protein expression = experiment: Western blot of IDO1 protein expression in IFN-γ-treated HeLa cells; format: cell-based, human; conditions: HeLa cells, IFN-γ 100 ng/mL 24 h, then compounds at their IC50 concentrations for 24 h
Method: as §2
To exclude the possibility that these secondary sulphonamides inhibit IDO1 activity by down-regulating IDO1 expression, we utilised Western blot to measure the expression of IDO1 protein in HeLa cells treated with different compounds.
Figure 3. […] (B) The greyscale scanning statistical results of A. (C) HeLa cells were incubated with compound 5d (3, 10, 30 μM) for 24 h. (D) The greyscale scanning statistical results of C. (E) HeLa cells were incubated with compound 5d (3, 10, 30 μM) for 48 h. (F) The greyscale scanning statistical results of E. Data are presented as means ± SEM (n = 3).

[4] = test system: naïve CD4+ T cells co-cultured with B16F1 melanoma cells; experiment: T cell proliferation in B16F1-T cell co-culture (MTT); format: cell-based, mouse
Method: as §2
T lymphocytes are exceedingly sensitive to low tryptophan levels. Overactivation of the kynurenine pathway by high IDO1 expression leads to local tryptophan depletion, which can suppress T cell proliferation by activating the GCN2 kinase pathway and eventually result in T cell anergy. Here, to determine whether secondary sulphonamides could rescue IDO1-mediated blockade of T cell proliferation, we used a co-culture of IDO1-expressing B16F1 melanoma cells with naïve CD4^+ T cells to mimic the tumour microenvironment. Given that melanoma is a highly immunogenic tumour and IDO1 constitutively expresses in melanoma cells, B16F1 murine melanoma cell lines that express IDO1 were then used to co-culture with T cells. Naïve CD4^+ T cells were isolated from spleens of C57BL/6 mice.
Figure 4. Compounds 5d and 8 g could promote the proliferation of T cells. Based on the B16F1-T cell co-culture system, use MTT assay to test T cells proliferation. The Navoximod and compounds were added to the system at the concentration of 1.5 and 18 μM. Data represent mean ± SEM (n = 3).

[5] = test system: naïve CD4+ T cells co-cultured with B16F1 cells; experiment: FoxP3+ Treg cell differentiation in B16F1-T cell co-culture (flow cytometry); format: cell-based, mouse; conditions: for FoxP3+ Treg cell differentiation (in words): Con A, 48 h
Method: as §2
Besides causing local tryptophan depletion, high IDO1 expression can also accumulate metabolites of kynurenine pathway. The elevated metabolites can not only induce effector T cell death directly through their cytotoxicity, but also promote the differentiation of naïve CD4^+ T cells into CD4^+ FoxP3^+ Treg cells by activating the AHR pathway. As a highly immunosuppressive subset of CD4^+ T cells, FoxP3^+ Treg cells are critical to the maintenance of immune homeostasis and are involved in tumour immune escape, thereby contributing to tumour development and progression. Therefore, we also utilised co-culture of B16F1 cells with naïve CD4^+ T cells to test whether the synthesised compounds could suppress IDO1 mediated Treg cell differentiation.
Figure 5. Compounds 5d and 8 g inhibited Treg cell differentiation in the cell co-culture system. (A) After co-cultured with B16F1 cells, T cells were collected. Surface staining was performed with CD4^+ FTTC and CD25^+ PE for 30 min at 4 °C. The cells were fixed and permeabilized with fixation buffer and permeabilization wash buffer. The intracellular staining was performed with FoxP3^+ APC for 20 min. The cells were then analysed by flow cytometry analysis. (B) Statistical analysis of result A. Data are represented as ± SEM (n = 3). *p < 0.05, **p < 0.01 vs T + B16F1. TEXT PRINTED IN THE PICTURE: (A) Navoximod: 8.1% (T + B16F1; 1.5 μM) | (A) 8g: 7.8% (T + B16F1; 18 μM) | (A) 5d: 2.1% (T + B16F1; 18 μM)

IDO1 [6] = biological target: T1, IDO1; design: method as in earlier work; conditions: HeLa cell assay; earlier series of N-acetyl secondary sulphonamides; cited from earlier work

SMILES: O=c1[nH]cc(F)c(=O)[nH]1 [5-FU, Fluorouracil, reference compound]
expression of PCNA protein (IHC) (CT26 colon carcinoma [1]): significantly reduced | number of tumour cells (H&E staining) (CT26 colon carcinoma [1]): significantly reduced | tumour cell apoptosis (TUNEL) (CT26 colon carcinoma [1]): apoptosis increased | tumour growth (CT26 colon carcinoma [2]): significantly suppressed tumour growth

IC50 (IDO1 [3]): 6.64 µM | inhibition at 30 µM (IDO1 [3]): 89.1% | potency increase as compared with the hit BS-1 (IDO1 [3]): 7.4 fold | melting point: 156 to 158 °C
SMILES: C=CC(=O)Nc1ccc(S(=O)(=O)NCc2cccc(Br)c2)cc1 [5l, N-(4-(N-(3-Bromobenzyl)sulfamoyl)phenyl)acrylamide]
HeLa cell viability (HeLa cells): without affecting the cell viability | expression of IDO1 protein (IDO1 protein expression): did not influence IDO1 expression

IC50 (IDO1 [3]): 3.76 µM | inhibition at 30 µM (IDO1 [3]): 93.2% | potency increase as compared with the hit BS-1 (IDO1 [3]): 13.1 fold
SMILES: C=CC(=O)Nc1ccc(S(=O)(=O)Nc2ccc(F)c(Cl)c2)cc1 [8g, N-(4-(N-(3-Chloro-4-fluorophenyl)sulfamoyl)phenyl)acrylamide]
HeLa cell viability (HeLa cells): without affecting the cell viability | expression of IDO1 protein (IDO1 protein expression): did not influence IDO1 expression | T cell proliferation ([4]; 18 μM): significant augmentation on T cell activity | FoxP3+ Treg cells (flow cytometry) ([5]; 18 μM): 7.8% | FoxP3+ Treg cell differentiation (in words) ([5]; 18 μM): significantly reduce FoxP3^+ Treg cell differentiation

potency increase as compared with the hit BS-1 (IDO1 [3]): 8.4 fold
SMILES: COc1ccc(CNS(=O)(=O)c2ccc(NC(C)=O)cc2)cc1 [N-(4-(N-(4-methoxybenzyl)sulfamoyl)phenyl)acetamide, reference compound]
IC50 (IDO1 [6]): 5.88 µM

SMILES: O[C@H](C[C@H]1c2c(F)cccc2-c2cncn21)[C@H]1CC[C@H](O)CC1 [Navoximod, (1R,4r)-4-((R)-2-((S)-6-fluoro-5H-imidazo[5,1-a]isoindol-5-yl)-1-hydroxyethyl)cyclohexan-1-ol, reference compound]
T cell proliferation ([4]; 1.5 μM): significant augmentation on T cell activity | FoxP3+ Treg cells (flow cytometry) ([5]; 1.5 μM): 8.1% | FoxP3+ Treg cell differentiation (in words) ([5]; 1.5 μM): significantly reduce FoxP3^+ Treg cell differentiation
